# Patent US20250032651A1, “[177LU] LUTETIUM-PSMA I&T COMPOSITION AND DOSIMETRY, KIT, METHOD OF MAKING, AND METHOD OF USING THEREOF” (Curium US LLC, priority 2022, published 2025)
# Test: Normal organ dosimetry Cycle 1: SPECT/CT, TIACs, OLINDA 2.2.3 absorbed radiation dose
# Assay type: in vivo, human
# Settings: for Absorbed Dose, Mean / Absorbed Dose, max / Absorbed Dose, median / Absorbed Dose, min: Cycle 1, n = 26
# Method: This Example presents the biodistribution, dosimetry, and pharmacokinetics (PK) results of a PK/Dosimetry sub-study performed as part of a Phase III trial. Twenty-seven (27) patients were administered a target activity of 7.4±10% GBq of ^177Lu-PSMA-I&T and underwent single photon emission computed tomography (SPECT)/computed tomography (CT) imaging at four timepoints (4 h, 24 h, 48 h, and 168 h). Image data was analysed to compute time-activity curves (TACs) and subsequently time-integrated activity coefficients (TIACs) in each organ of interest and in organs showing appreciable and meaningful ^177Lu-PSMA-I&T activity. Organ Level Internal Dose Assessment (OLINDA 2.2.3) was used to compute organ and whole body absorbed radiation doses for each patient.
# All participating sites underwent a rigorous site setup process during which all dose calibrators, scanners, and gamma counters used in the sub-study were calibrated. Sites were allowed to enroll patients in the sub-study only after the completion and approval of all site setup processes by Invicro. Patients underwent SPECT/CT imaging, with anatomical coverage typically extending from the salivary glands to the pelvis, following the administration of a targeted 7.4±10% GBq of ^177Lu-PSMA-I&T at cycle 1. SPECT/CT imaging was performed at four timepoints: 4 h, 24 h, 48 h, and 168 h post-injection. Additionally, a subset of patients imaged at Cycle 1 (16 out of 27), were also imaged at Cycle 3 (Table 2).
# The imaging data was analyzed using Invicro's VivoQuant software, a validated software used in a 21 CFR § 11-compliant workflow. The general quantification approach was based on the principles detailed in the Medical Internal Radiation Dose (MIRD) Pamphlet No. 16, No 23, and No 26 as appropriate.
# Volume of interest (VOI) (kidneys, bladder, liver, lumbar vertebrae L2-L4, lacrimal glands, salivary glands [parotid and submandibular glands], and whole body) were delineated on each dataset by a trained image analyst. […] Organs were segmented either by drawing the entire contour of the organ, or by placing a sphere in a representative region of the organ and then multiplying by the organ's effective mass (based on patient's height and weight). Segmentation methods for each organ are specified in Table 3 and were consistently applied to each patient.
# Clearance of the radiopharmaceutical was derived from a data-appropriate fit of each organ's TAC. Depending on the TAC's shape, the data was fitted with the sum of one, two, or three exponentials, or using a rise and fall model. Fitting was performed with in-house Python software. TIACs were calculated through analytical integration of the curve fit extrapolated to infinity. […] A whole-body TAC was derived from delineating the imaged body. The remainder activity was determined by subtracting the cumulative organ TIACs from the whole body TIAC.
# Organ TIACs were input into OLINDA 2.2.3 for the computation of organ and whole-body absorbed doses, using International Commission on Radiological Protection (ICRP)-103 weighing factors. The ICRP-89 derived male phantom was used for dose estimation. Organs and body mass as defined by ICRP-89 were scaled based on height and mass using patient effective mass.^4 The voiding bladder model as implemented in OLINDA was used to determine bladder TIAC, assuming a voiding interval of 4 hours. The human alimentary tract model (HAT model) described in ICRP 100 and implemented in OLINDA was used to compute doses to the small intestine, right colon, left colon and rectum for patients showing clearance through the GI tract. The fraction of injected activity (fIA) cleared via the GI tract was determined by taking the peak fIA in the GI tract over all the imaging timepoints. […] The Red Marrow mass in L2-L4 was assumed to be 6.7% of the total red marrow mass.
# [1] = Stomach Wall, 16 patients imaged at cycle 1 and 3
# [2] = Testes, 16 patients imaged at cycle 1 and 3
# [3] = Thymus, 16 patients imaged at cycle 1 and 3
# [4] = Thyroid, 16 patients imaged at cycle 1 and 3
# [5] = Total Body, 16 patients imaged at cycle 1 and 3
# [6] = Urinary Bladder wall, 16 patients imaged at cycle 1 and 3
smiles,measurement,setting,value
"O=C([O-])CC[C@H](NC(=O)N[C@@H](CCCCNC(=O)CCCCCCC(=O)NCCCC[C@@H](NC(=O)[C@@H](Cc1ccccc1)NC(=O)[C@@H](Cc1ccc(O)c(I)c1)NC(=O)CC[C@H](C(=O)[O-])N1CCN(CC(=O)[O-])CCN(CC(=O)[O-])CCN(CC(=O)[O-])CC1)C(=O)[O-])C(=O)[O-])C(=O)[O-].[177Lu+3].[H+].[H+].[H+].[H+].[H+] [^177Lu-PSMA I&T, (3S,7S,26R,29R,32R,37R)-29-benzyl-32-(4-hydroxy-3-iodobenzyl)-5,13,20,28,31,34-hexaoxo-37-(4,7,10-tris(carboxymethyl)-1,4,7,10-tetraazacyclododecan-1-yl)-4,6,12,21,27,30,33-heptaazaheptatriacontane-1,3,7,26,37-pentacarboxylic acid; lutetium-177 (III)]","Absorbed Dose, Mean",Spleen,0.03 Gy/GBq
same,"Absorbed Dose, max",Spleen,0.11 Gy/GBq
same,"Absorbed Dose, median",Spleen,0.02 Gy/GBq
same,"Absorbed Dose, min",Spleen,0.01 Gy/GBq
same,"Absorbed Dose in Cycle 1, Mean","Spleen, N = 16",0.03 Gy/GBq
same,"Absorbed Dose in Cycle 1, max","Spleen, N = 16",0.11 Gy/GBq
same,"Absorbed Dose in Cycle 1, min","Spleen, N = 16",0.01 Gy/GBq
same,"Absorbed Dose in Cycle 1, Mean",[1],0.02 Gy/GBq
same,"Absorbed Dose in Cycle 1, max",[1],0.07 Gy/GBq
same,"Absorbed Dose in Cycle 1, min",[1],0.00 Gy/GBq
same,"Absorbed Dose, Mean",Stomach Wall,0.02 Gy/GBq
same,"Absorbed Dose, max",Stomach Wall,0.07 Gy/GBq
same,"Absorbed Dose, median",Stomach Wall,0.01 Gy/GBq
same,"Absorbed Dose, min",Stomach Wall,0.00 Gy/GBq
same,"Absorbed Dose in Cycle 1, Mean","Stomach Wall, N = 16",0.02 Gy/GBq
same,"Absorbed Dose in Cycle 1, max","Stomach Wall, N = 16",0.07 Gy/GBq
same,"Absorbed Dose in Cycle 1, min","Stomach Wall, N = 16",0.00 Gy/GBq
same,"Absorbed Dose in Cycle 1, Mean",[2],0.01 Gy/GBq
same,"Absorbed Dose in Cycle 1, max",[2],0.07 Gy/GBq
same,"Absorbed Dose in Cycle 1, min",[2],0.00 Gy/GBq
same,"Absorbed Dose, Mean",Testes,0.01 Gy/GBq
same,"Absorbed Dose, max",Testes,0.07 Gy/GBq
same,"Absorbed Dose, median",Testes,0.01 Gy/GBq
same,"Absorbed Dose, min",Testes,0.00 Gy/GBq
same,"Absorbed Dose in Cycle 1, Mean","Testes, N = 16",0.01 Gy/GBq
same,"Absorbed Dose in Cycle 1, max","Testes, N = 16",0.07 Gy/GBq
same,"Absorbed Dose in Cycle 1, min","Testes, N = 16",0.00 Gy/GBq
same,"Absorbed Dose in Cycle 1, Mean",[3],0.01 Gy/GBq
same,"Absorbed Dose in Cycle 1, max",[3],0.07 Gy/GBq
same,"Absorbed Dose in Cycle 1, min",[3],0.00 Gy/GBq
same,"Absorbed Dose, Mean",Thymus,0.01 Gy/GBq
same,"Absorbed Dose, max",Thymus,0.07 Gy/GBq
same,"Absorbed Dose, median",Thymus,0.01 Gy/GBq
same,"Absorbed Dose, min",Thymus,0.00 Gy/GBq
same,"Absorbed Dose in Cycle 1, Mean","Thymus, N = 16",0.01 Gy/GBq
same,"Absorbed Dose in Cycle 1, max","Thymus, N = 16",0.07 Gy/GBq
same,"Absorbed Dose in Cycle 1, min","Thymus, N = 16",0.00 Gy/GBq
same,"Absorbed Dose in Cycle 1, Mean",[4],0.01 Gy/GBq
same,"Absorbed Dose in Cycle 1, max",[4],0.07 Gy/GBq
same,"Absorbed Dose in Cycle 1, min",[4],0.00 Gy/GBq
same,"Absorbed Dose, Mean",Thyroid,0.01 Gy/GBq
same,"Absorbed Dose, max",Thyroid,0.07 Gy/GBq
same,"Absorbed Dose, median",Thyroid,0.01 Gy/GBq
same,"Absorbed Dose, min",Thyroid,0.00 Gy/GBq
same,"Absorbed Dose in Cycle 1, Mean","Thyroid, N = 16",0.01 Gy/GBq
same,"Absorbed Dose in Cycle 1, max","Thyroid, N = 16",0.07 Gy/GBq
same,"Absorbed Dose in Cycle 1, min","Thyroid, N = 16",0.00 Gy/GBq
same,"Absorbed Dose in Cycle 1, Mean",[5],0.02 Gy/GBq
same,"Absorbed Dose in Cycle 1, max",[5],0.09 Gy/GBq
same,"Absorbed Dose in Cycle 1, min",[5],0.01 Gy/GBq
same,"Absorbed Dose, Mean",Total Body,0.02 Gy/GBq
same,"Absorbed Dose, max",Total Body,0.09 Gy/GBq
same,"Absorbed Dose, median",Total Body,0.02 Gy/GBq
same,"Absorbed Dose, min",Total Body,0.01 Gy/GBq
same,"Absorbed Dose in Cycle 1, Mean","Total Body, N = 16",0.02 Gy/GBq
same,"Absorbed Dose in Cycle 1, max","Total Body, N = 16",0.09 Gy/GBq
same,"Absorbed Dose in Cycle 1, min","Total Body, N = 16",0.01 Gy/GBq
same,"Absorbed Dose in Cycle 1, Mean",[6],0.40 Gy/GBq
same,"Absorbed Dose in Cycle 1, max",[6],0.47 Gy/GBq
same,"Absorbed Dose in Cycle 1, min",[6],0.33 Gy/GBq
same,"Absorbed Dose, Mean",Urinary Bladder wall,0.41 Gy/GBq
same,"Absorbed Dose, max",Urinary Bladder wall,0.50 Gy/GBq
same,"Absorbed Dose, median",Urinary Bladder wall,0.41 Gy/GBq
same,"Absorbed Dose, min",Urinary Bladder wall,0.33 Gy/GBq
same,"Absorbed Dose in Cycle 1, Mean","Urinary Bladder wall, N = 16",10.40 Gy/GBq
same,"Absorbed Dose in Cycle 1, max","Urinary Bladder wall, N = 16",0.47 Gy/GBq
same,"Absorbed Dose in Cycle 1, min","Urinary Bladder wall, N = 16",0.33 Gy/GBq
